Assay results: patent publication US9315494B2, “Alkyl-amide-substituted pyridyl compounds useful as modulators of IL-12, IL-23 and/or IFNα responses” (Bristol-Myers Squibb Company, priority 2012, dated 2016)
Like-named read-outs stand apart in the source and are kept apart here.

Tests used:
[1] = system: IL-23-stimulated STAT-dependent luciferase reporter in Kit225 T cells; assay: Kit225 T cell assay, IL-23 stimulated STAT-dependent luciferase reporter; assay type: cell-based, human; settings: Kit225 T cells, 20 ng/mL human recombinant IL-23, 5-6 hours, luciferase; read-out: IL23 (Kit225 T Cell Inhibition Data)
In short: (§1)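 Kit225 T cells carrying a stably integrated STAT-luciferase reporter, in RPMI with 10% heat-inactivated FBS, were stimulated with 20 ng/mL IL-23 or 200 U/mL IFNα for 5-6 h. Readout was luminescence from the luciferase reporter.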

[2] = target: T1, recombinantly expressed His-tagged protein corresponding to amino acids 575-869 of human Tyk2 (Homo sapiens, UniProt P29597); assay: Probe displacement assay (scintillation proximity, [3H] probe); assay type: binding; settings: 2.5 nM Tyk2 (575-869), 40 nM radiolabeled probe, 30 minutes at room temperature
T1 construct: corresponding to amino acids 575-869 of human Tyk2; made in house
Protocol: The probe displacement assay is conducted as follows: In a […], test compounds along with recombinantly expressed His-tagged protein corresponding to amino acids 575-869 of human Tyk2 (sequence shown below) at 2.5 nM, 40 nM ((R)-N-(1-(3-(8-methyl-5-(methylamino)-8H-imidazo[4,5-d]thiazolo[5,4-b]pyridin-2-yl)phenyl)ethyl)-2-([^3H]methylsulfonyl)benzamide) (preparation described below) and 80 μg/mL Copper His-Tag scintillation proximity assay beads (Perkin Elmer, Catalog #RPNQ0095) in 50 mM HEPES, pH 7.5, containing 100 μg/mL bovine serum albumin and 5% DMSO were incubated for 30 minutes at room temperature. The amount of radiolabeled probe (preparation described below) bound to Tyk2 was then quantified by scintillation counting, and the inhibition by the test compound calculated by comparison to wells either with no inhibitor (0% inhibition) or without Tyk2 (100% inhibition).
Protein Sequence of recombinant Hig-tagged Tyk2 (575-869):
The preparation of radiolabeled probe, (R)-N-(1-(3-(8-methyl-5-(methylamino)-8H-imidazo[4,5-d]thiazolo[5,4-b]pyridin-2-yl)phenyl)ethyl)-2-([^3H]methylsulfonyl)benzamide, was performed as described below: […]

[3] = system: IFNα-stimulated STAT-dependent luciferase reporter in Kit225 T cells; assay: Kit225 T cell assay, IFNα stimulated STAT-dependent luciferase reporter; assay type: cell-based, human
In short: as §1

[4] = Kit225 T cells, 200 U/mL human recombinant IFNα, 5-6 hours, luciferase, read-out: IFNα (Kit225 T Cell Inhibition Data)

T1 sequence (P29597 575-869): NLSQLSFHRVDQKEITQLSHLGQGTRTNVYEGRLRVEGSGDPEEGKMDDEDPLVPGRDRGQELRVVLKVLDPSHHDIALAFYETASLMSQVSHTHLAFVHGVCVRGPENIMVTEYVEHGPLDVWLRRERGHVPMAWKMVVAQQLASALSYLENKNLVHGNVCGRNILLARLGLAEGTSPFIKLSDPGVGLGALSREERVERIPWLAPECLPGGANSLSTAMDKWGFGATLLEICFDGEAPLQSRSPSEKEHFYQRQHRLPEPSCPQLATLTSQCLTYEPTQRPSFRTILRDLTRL

IC50 [1] [nM] | EC50 [2] [nM] | IC50 [3, 4] [nM] | IC50 ([3]; Homo sapiens, KIT225, read-out: IFNα (Kit225 T Cell Inhibition Data)) [nM] | SMILES
2180 | 155 | 1370 | – | CNC(=O)c1cnc(Nc2ccc(C(=O)NC3CC3)cn2)cc1Nc1ccc(Cl)cc1OC [Example 261]
11 | 8 | 17 | – | [2H]C([2H])([2H])NC(=O)c1cnc(Nc2ccc(C)nn2)cc1Nc1cccc(-c2csc(C)n2)c1OC [Example 448]
30 | 10.5 | 30 | – | CNC(=O)c1cnc(Nc2cc(C)c(F)cn2)cc1Nc1cccc(C(=O)NCc2nccs2)c1OC [Example 345]
310 | 14 | 230 | – | CCC(CC)CNC(=O)c1cccc(Nc2cc(Nc3cc(C)c(F)cn3)ncc2C(=O)NC)c1OC [Example 334]
20 | 1.1 | 10 | – | [2H]C([2H])([2H])NC(=O)c1cnc(Nc2ccccn2)cc1Nc1cccc(-c2ncc(F)cn2)c1OC [Example 449]
335 | 21.3 | 140 | – | CNC(=O)c1cnc(Nc2ccc(C)cn2)cc1Nc1cc(F)cc(F)c1OC [Example 128]
4100 | 5.5 | 1850 | – | CNC(=O)c1cnc(Nc2ccc(CO)cn2)cc1Nc1ccccc1C(N)=O [Example 79]
4060 | 182 | 2090 | – | CNC(=O)c1cnc(Nc2ccc(F)cn2)cc1Nc1ccccc1S(=O)(=O)N(C)C [Example 302]
320 | 4.4 | 460 | – | CNC(=O)c1cnc(Nc2ccc(Cl)cn2)cc1Nc1ccccc1C(N)=O [Example 80]
3530 | 16.4 | 1030 | – | CNC(=O)c1cnc(Nc2ccc(S(C)(=O)=O)cn2)cc1Nc1ccccc1S(C)(=O)=O [Example 61]
5610 | 597 | 4600 | – | CNC(=O)c1cnc(Nc2ccc(N3CCOCC3)cn2)cc1Nc1ccccc1CCO [Example 224]
4300 | 557 | 6470 | – | CNC(=O)c1cnc(Nc2ccc(F)cn2)cc1Nc1cccc2ccccc12 [Example 188]
280 | 4.6 | 120 | – | CNC(=O)c1cnc(Nc2cc(C)c(F)cn2)cc1Nc1cccc(-c2nc[nH]n2)c1OC(F)F [Example 387]
150 | 11.5 | 80 | – | [2H]C([2H])([2H])NC(=O)c1cnc(Nc2cc(C)c(C#N)c(C)n2)cc1Nc1ccccc1S(C)(=O)=O [Example 438]
30 | 3.1 | 20 | – | CNC(=O)c1cnc(Nc2cc(C)nc(C)n2)cc1Nc1cccc(-c2cnn(C)c2)c1OC [Example 395]
5580 | 22.7 | 4490 | – | CNC(=O)c1cnc(Nc2ccc(O)cn2)cc1Nc1ccccc1C(N)=O [Example 81]
189 | 32.4 | 120 | – | CNC(=O)c1cnc(Nc2ccc(N3CCCC3=O)cn2)cc1Nc1ccc(Cl)cc1OC [Example 107]
1040 | 18.8 | 1020 | – | CNC(=O)c1cnc(Nc2cc(C#N)ccn2)cc1Nc1cccc(F)c1C(N)=O [Example 176]
10 | 4.2 | 10 | – | CNC(=O)c1cnc(Nc2ccc(F)cn2)cc1Nc1ccccc1N(C)S(C)(=O)=O [Example 426]
100 | 15.3 | 10 | – | CNC(=O)c1cnc(Nc2cc(C)c(F)cn2)cc1Nc1cccc(C(=O)NCc2ccccn2)c1OC [Example 327]
5.83 | 3.5 | 2.86 | – | CNC(=O)c1cnc(Nc2cc(C)nc(C)n2)cc1Nc1cccc(-c2ccn(C)n2)c1OC [Example 393]
10 | 4.6 | 5.07 | – | CCn1cnc(-c2cccc(Nc3cc(Nc4cc(C)nc(C)n4)ncc3C(=O)NC)c2OC)n1 [Example 382]
10700 | 779 | 6650 | – | CNC(=O)c1cnc(Nc2cccc(-n3ccccc3=O)n2)cc1Nc1ccc(F)cc1OC [Example 165]
10 | 4.8 | 10 | – | CNC(=O)c1cnc(Nc2cc(C)nc(C)n2)cc1Nc1cccc(-c2nnc(C)[nH]2)c1OC [Example 365]
460 | 76.4 | 210 | – | CNC(=O)c1cnc(Nc2cc(C)c(F)cn2)cc1Nc1cccc(C(=O)NCC2CCCCC2)c1OC [Example 325]
372 | 25.1 | 180 | – | CNC(=O)c1cnc(Nc2ccc(F)cn2)cc1Nc1cc(F)cc(F)c1OC [Example 205]

IC50 [1] [nM] | EC50 [2] [nM] | IC50 [3, 4] [nM] | IC50 ([3]; Homo sapiens, KIT225, read-out: IFNα (Kit225 T Cell Inhibition Data)) [nM] | SMILES
173 | 68.7 | 870 | – | CNC(=O)c1cnc(Nc2cc(C#N)ccn2)cc1Nc1ccc(S(C)(=O)=O)cc1OC [Example 43]
20 | 7.3 | 10 | – | [2H]C([2H])([2H])NC(=O)c1cnc(Nc2cc(C(C)(C)O)ccn2)cc1Nc1cccc(-c2ncc(F)cn2)c1OC [Example 450]
1460 | 53.5 | 1170 | – | CNC(=O)c1cnc(Nc2ccc(F)cn2)cc1Nc1cc(Cl)ccc1OC [Example 203]
– | 633 | – | 12500 | CNC(=O)c1cnc(Nc2ccc3ccccc3n2)cc1NC1CCCC1 [Example 283]
270 | – | 200 | – | CNC(=O)c1cnc(Nc2cc(F)ccn2)cc1Nc1ccc(F)cc1S(C)(=O)=O [Example 51]
170 | – | 70 | – | CNC(=O)c1cnc(Nc2cc(C)c(F)cn2)cc1Nc1cccc(-c2ccnn2C)c1OC [Example 392]
3000 | – | 3630 | – | CNC(=O)c1cnc(Nc2ccc3ccccc3n2)cc1NC1CCCC1(C)F (stereo not shown) [Example 284]
2670 | – | 6970 | – | CNC(=O)c1cnc(Nc2ccc(F)cn2)cc1Nc1ccc(S(C)(=O)=O)cc1 [Example 201]
3910 | – | 3250 | – | CNC(=O)c1cnc(Nc2cc(C(N)=O)ccn2)cc1Nc1ccc(Cl)cc1OC [Example 97]
40 | – | 20 | – | CNC(=O)c1cnc(Nc2cc(C)c(F)cn2)cc1Nc1cccc(C(=O)NCC(F)(F)F)c1OC [Example 346]
1060 | – | 670 | – | CNC(=O)c1cnc(Nc2cc(C(C)=O)ccn2)cc1Nc1ccccc1S(C)(=O)=O [Example 26]
20 | – | 10 | – | [2H]C([2H])([2H])NC(=O)c1cnc(Nc2cc(CO)ccn2)cc1Nc1cccc(-c2csc(C)n2)c1OC [Example 405]
60 | – | 60 | – | CNC(=O)c1cnc(Nc2cc(C)c(F)cn2)cc1Nc1cccc(C(=O)NCCCOC)c1OC [Example 349]
1240 | – | 570 | – | CNC(=O)c1ccc(Nc2cc(Nc3ccc(F)cn3)ncc2C(=O)NC)c(S(C)(=O)=O)c1 [Example 304]
590 | – | 1020 | – | CNC(=O)c1cnc(Nc2ccc(F)cn2)cc1Nc1ccc(-c2nnco2)cc1S(C)(=O)=O [Example 312]
50.7 | – | 40 | – | CNC(=O)c1cnc(Nc2cccc(F)n2)cc1Nc1ccccc1S(C)(=O)=O [Example 20]
9720 | – | 5970 | – | CNC(=O)c1cnc(Nc2ccccn2)cc1Nc1ccccc1C(C)(C)O [Example 183]
190 | – | 160 | – | CNC(=O)c1cnc(Nc2ccc(F)cn2)cc1Nc1ccc(-c2ncco2)cc1S(C)(=O)=O [Example 311]
374 | – | 960 | – | CNC(=O)c1cnc(Nc2cc(C(=O)NCC#N)ccn2)cc1Nc1cccc(F)c1OC [Example 278]
632 | – | 440 | – | CNC(=O)c1cnc(Nc2cc(F)ccn2)cc1Nc1ccc(Cl)cc1OC [Example 115]
2860 | – | 890 | – | CNC(=O)c1cnc(Nc2ccc(S(=O)(=O)N(C)C)cn2)cc1Nc1ccccc1C(N)=O [Example 88]
86.6 | – | 80 | – | CNC(=O)c1cnc(Nc2cc(C)ccn2)cc1Nc1cc(F)cc(F)c1OC [Example 129]
1290 | – | 430 | – | CNC(=O)c1cnc(Nc2ccc(F)cn2)cc1Nc1ccc(OC(F)(F)F)cc1C(N)=O [Example 252]
8790 | – | 11100 | – | CNC(=O)c1cnc(Nc2ccc(F)cn2)cc1Nc1cccc2c1OC(F)(F)O2 [Example 123]
530 | – | 320 | – | CNC(=O)c1cnc(Nc2cc(C3CCC3)[nH]n2)cc1Nc1ccccc1S(C)(=O)=O [Example 445]
90 | – | 10 | – | CNC(=O)c1cnc(Nc2cc(C)c(F)cn2)cc1Nc1cccc(C(N)=O)c1OC [Example 319]
